Assay: Dynamic Laser Light Scattering (DLLS) analysis of supramolecular aggregation
Type: physicochemical
Protocol: Dynamic Laser Light Scattering (DLLS) was carried out on a Zetasizer Nano S from Malvern Instruments. DLLS is used for measuring the size of the microemulsion oil droplets or size of the supramolecular aggregates (% distribution function modality). Further characterization of supramolecular aggregation is given by the correlation coefficient function modality analysis of the Dynamic Laser Light Scattering.
In order to monitor the level of molecular aggregation in solution, Dynamic Laser Light Scattering (DLLS) has been used. Using this technique, it is not necessary to dilute the sample.

- Aggregation by DLLS (correlation coefficient function) (50 μg/ml in water): presence of aggregates
Compound: CC(=O)O[C@@]12CO[C@@H]1C[C@H](O)[C@@]1(C)C(=O)[C@H](O)C3=C(C)[C@@H](OC(=O)[C@H](O)[C@@H](NC(=O)OC(C)(C)C)c4ccccc4)C[C@@](O)([C@@H](OC(=O)c4ccccc4)[C@H]21)C3(C)C [docetaxel]
- Aggregation by DLLS (correlation coefficient function) (50 μg/ml in water plus triacetin 10 mg/ml): greatly reduces supramolecular aggregation
- Aggregation by DLLS (correlation coefficient function) (50 μg/ml in water plus triacetin 30 mg/ml): totally eliminates the presence of molecular aggregates

— US9468602B2, “Pharmaceutical microemulsion for preventing supramolecular aggregation of amphiphilic molecules” (AZAD Pharma AG, priority 2009, dated 2016)
